This note sets out measurements from PubChem BioAssay (NCI).

SMILES strings stand for the structures. Values joined by “and” are separate entries in the source; they are usually repeats but may differ in a detail not shown here. Identical values can stand only once.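 Interpolation was linear, between the two tested concentrations surrounding the appropriate level; five concentrations were tested over 48 hours in 96-well plates. The concentration for full growth arrest is given as TGI.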

Among the test systems are SK-MEL-5 melanoma; SF-268 CNS; OVCAR-8 ovarian; EKVX NSCLC; SF-295 CNS; SNB-78 CNS; DMS 273 small cell lung; RPMI-8226 leukemia; M14 melanoma; SNB-75 CNS; SK-OV-3 ovarian; SNB-19 CNS; HCC-2998 colon; UACC-257 melanoma; OVCAR-4 ovarian; ACHN renal; RXF 393 renal; CCRF-CEM leukemia; LOX IMVI melanoma; NCI/ADR-RES ovarian.
Test in all cases: NCI anticancer screen, dose series, 48 h

For `N#Cc1ccc([N+](=O)[O-])cc1NC(N)=S`, the TGI in the experiment with SK-MEL-5 melanoma, with SF-268 CNS, with OVCAR-8 ovarian, in the experiment on EKVX NSCLC, in the experiment with SF-295 CNS and in the experiment with SNB-78 CNS was above 100 µM in each case. Besides, the TGI in the experiment with DMS 273 small cell lung, in the experiment on RPMI-8226 leukemia, in the experiment on M14 melanoma, in the experiment with SNB-75 CNS, with SK-OV-3 ovarian and with SNB-19 CNS was above 100 µM throughout. In addition, the TGI in the experiment on HCC-2998 colon was above 100 µM.

`O=Cc1ccccc1CCn1c(=O)c2cc3c(=O)n(CCc4ccccc4C=O)c(=O)c3cc2c1=O`: the TGI in the experiment on SK-MEL-5 melanoma, in the experiment on SF-268 CNS, in the experiment with OVCAR-8 ovarian, in the experiment on UACC-257 melanoma, in the experiment on OVCAR-4 ovarian and in the experiment with SF-295 CNS was above 100 µM each time. The TGI in the experiment on SNB-78 CNS, in the experiment with ACHN renal, with RXF 393 renal, in the experiment with DMS 273 small cell lung, with SNB-75 CNS and in the experiment with SK-OV-3 ovarian was above 100 µM in each case. Besides, the TGI in the experiment with SNB-19 CNS, with CCRF-CEM leukemia and with LOX IMVI melanoma was above 100 µM in each case.

Regarding `Nc1nc(SCCNC(=O)CCc2ccc(O)c(I)c2)nc2c1ncn2C1OC(CO)C(O)C1O` (centres undefined), the TGI with SK-MEL-5 melanoma, with SF-268 CNS, with OVCAR-8 ovarian, in the experiment on EKVX NSCLC, with UACC-257 melanoma and with OVCAR-4 ovarian was above 100 µM each time. Further, the TGI in the experiment on SF-295 CNS, in the experiment on SNB-78 CNS, in the experiment with ACHN renal, in the experiment with RXF 393 renal, with DMS 273 small cell lung and in the experiment with M14 melanoma was above 100 µM each time. The TGI in the experiment on SNB-75 CNS, in the experiment with SK-OV-3 ovarian, in the experiment with SNB-19 CNS, with CCRF-CEM leukemia and with HCC-2998 colon was above 100 µM each time.

With `CC(C)CNCCc1ccccn1`, the TGI in the experiment on SK-MEL-5 melanoma, in the experiment with SF-268 CNS, with OVCAR-8 ovarian, in the experiment with EKVX NSCLC, in the experiment with UACC-257 melanoma and in the experiment with OVCAR-4 ovarian was above 100 µM throughout. Moreover, the TGI in the experiment on SF-295 CNS, in the experiment on ACHN renal, in the experiment on RXF 393 renal, with NCI/ADR-RES ovarian, in the experiment on M14 melanoma and in the experiment on SNB-75 CNS was above 100 µM in each case. In addition, the TGI with SK-OV-3 ovarian, in the experiment on SNB-19 CNS, with CCRF-CEM leukemia, with HCC-2998 colon and with LOX IMVI melanoma was above 100 µM throughout.

For `C1=CC=C2NCCc3cccc(c3)CCNC3=CC=CC=CC3=NCCCCCCN=C2C=C1`, the TGI in the experiment with SF-268 CNS is above 100 µM; in the experiment with OVCAR-8 ovarian it was 61.6 µM; in the experiment on EKVX NSCLC, above 100 µM; with UACC-257 melanoma, 41.8 µM; with OVCAR-4 ovarian, 39 µM; with SF-295 CNS, 49.6 µM. For the same compound, the TGI in the experiment on SNB-78 CNS was above 100 µM; in the experiment on ACHN renal it was above 100 µM; with RXF 393 renal it was 32.4 µM; with DMS 273 small cell lung it was 21.9 µM; in the experiment on RPMI-8226 leukemia, 31.1 µM; in the experiment on M14 melanoma, 29.8 µM. Moreover, the TGI with SNB-75 CNS is 49.9 µM; in the experiment on SK-OV-3 ovarian it was 70.6 µM; in the experiment on SNB-19 CNS, above 100 µM; in the experiment with CCRF-CEM leukemia it was above 100 µM; with LOX IMVI melanoma it was 26.9 µM.

Turning to `CC1=C(SCCO)C(=O)c2ccccc2C1=O`, the TGI was 26.6 µM in the experiment on SK-MEL-5 melanoma; 29.9 µM with SF-268 CNS; 28.6 µM in the experiment on OVCAR-8 ovarian; 27.5 µM in the experiment with EKVX NSCLC; 25.8 µM in the experiment on UACC-257 melanoma; 15.3 µM in the experiment with OVCAR-4 ovarian. For the same compound, the TGI with SF-295 CNS is 32.8 µM; with ACHN renal, 13 µM; in the experiment with RXF 393 renal, 26.3 µM; with NCI/ADR-RES ovarian, 31.9 µM; in the experiment with M14 melanoma, 27.6 µM; with SNB-75 CNS, 30.1 µM. Further, the TGI was 29.6 µM with SK-OV-3 ovarian; 79.6 µM in the experiment on SNB-19 CNS; above 100 µM with CCRF-CEM leukemia; 30.4 µM with HCC-2998 colon; 24.6 µM with LOX IMVI melanoma.

As for `CC[C@@]1(O)C[C@H](OC2CC(N(C)C)C(OC3CC(O)C(OC4CCC(=O)C(C)O4)C(C)O3)C(C)O2)c2c(cc3c(c2O)C(=O)c2c(O)cccc2C3=O)C1C(=O)OC` (some centres undefined), the TGI with SK-MEL-5 melanoma was 0.189 µM and 0.478 µM; with OVCAR-8 ovarian, 0.679 µM and 4.49 µM; in the experiment with EKVX NSCLC, 3.02 µM and 1.35 µM; with UACC-257 melanoma it was 0.202 µM and 0.993 µM; in the experiment on OVCAR-4 ovarian it was 0.117 µM; in the experiment with SF-295 CNS, 1.1 µM and 1.89 µM. Further, the TGI was 2.15 µM with ACHN renal; 0.157 µM in the experiment with RXF 393 renal; 0.673 µM in the experiment with NCI/ADR-RES ovarian; 0.237 µM and 0.769 µM in the experiment on M14 melanoma; 6 µM and 12.7 µM in the experiment on SK-OV-3 ovarian; 0.116 µM and 1.02 µM in the experiment with CCRF-CEM leukemia. Also, the TGI in the experiment with HCC-2998 colon is 0.598 µM and 1.88 µM.

`O=c1oc2cc(O)ccc2c2oc3cc(O)ccc3c12`: the TGI is 69.9 µM in the experiment on SK-MEL-5 melanoma; above 82.5 µM in the experiment on SF-268 CNS; above 125 µM in the experiment with OVCAR-8 ovarian; above 125 µM in the experiment on EKVX NSCLC; 124 µM in the experiment on UACC-257 melanoma; above 125 µM in the experiment on OVCAR-4 ovarian. The TGI in the experiment on SF-295 CNS was above 125 µM; with SNB-78 CNS, above 86.3 µM; in the experiment on RXF 393 renal it was 124 µM; with DMS 273 small cell lung, above 121 µM; with NCI/ADR-RES ovarian it was above 125 µM; in the experiment on RPMI-8226 leukemia, above 125 µM. In addition, the TGI with SNB-75 CNS was above 125 µM; in the experiment on SK-OV-3 ovarian it was 70.8 µM; with SNB-19 CNS, 91.7 µM; with CCRF-CEM leukemia it was above 125 µM; with HCC-2998 colon it was above 118 µM; with LOX IMVI melanoma, above 102 µM.

For `CC(C)C1=CC2=CC[C@@H]3[C@](C)(CCC[C@@]3(C)C(=O)O)[C@H]2CC1`, the TGI in the experiment with SK-MEL-5 melanoma is above 94.2 µM; with SF-268 CNS it was above 100 µM; in the experiment on OVCAR-8 ovarian, above 100 µM; in the experiment with EKVX NSCLC, above 89.3 µM; in the experiment with UACC-257 melanoma, above 100 µM; with OVCAR-4 ovarian, above 100 µM. Moreover, the TGI is above 100 µM in the experiment on SF-295 CNS; above 96.2 µM in the experiment on SNB-78 CNS; above 100 µM in the experiment with ACHN renal; 97.4 µM in the experiment on RXF 393 renal; above 100 µM in the experiment with DMS 273 small cell lung; above 79.7 µM with RPMI-8226 leukemia. The TGI with M14 melanoma, with SNB-75 CNS, with SK-OV-3 ovarian, in the experiment with SNB-19 CNS, in the experiment on CCRF-CEM leukemia and in the experiment on HCC-2998 colon was above 100 µM throughout. Also, the TGI in the experiment with LOX IMVI melanoma is above 100 µM.

On to `C=CCn1c(=O)c(Br)nn(CCOCP(=O)(OCC)OCC)c1=O`, for which the TGI in the experiment with SK-MEL-5 melanoma, in the experiment on SF-268 CNS, with OVCAR-8 ovarian, in the experiment on EKVX NSCLC, in the experiment with UACC-257 melanoma and with ACHN renal was above 100 µM each time. The TGI with RXF 393 renal, with NCI/ADR-RES ovarian, in the experiment with RPMI-8226 leukemia, in the experiment with M14 melanoma, with SNB-75 CNS and in the experiment on SNB-19 CNS was above 100 µM each time. The TGI with CCRF-CEM leukemia, in the experiment with HCC-2998 colon and in the experiment on LOX IMVI melanoma was above 100 µM throughout.

With `COc1nc2ccc(CNc3ccc(C(=O)NC(CCC(=O)O)C(=O)O)cc3)cc2nc1OC` (centres undefined), the TGI with SK-MEL-5 melanoma, with SF-268 CNS, in the experiment on OVCAR-8 ovarian, in the experiment on EKVX NSCLC, in the experiment with UACC-257 melanoma and in the experiment on OVCAR-4 ovarian was above 100 µM each time. In addition, the TGI in the experiment with SF-295 CNS, in the experiment on ACHN renal, with RXF 393 renal, with NCI/ADR-RES ovarian, in the experiment with RPMI-8226 leukemia and in the experiment on M14 melanoma was above 100 µM throughout. Besides, the TGI in the experiment on SNB-75 CNS, in the experiment on SK-OV-3 ovarian, in the experiment on SNB-19 CNS, with CCRF-CEM leukemia, in the experiment on HCC-2998 colon and in the experiment on LOX IMVI melanoma was above 100 µM in each case.
